In patent publication US11433090B2, “mTOR-inhibitor-containing medicine for treating or preventing ophthalmic symptoms, disorders, or diseases, and application thereof” (The Doshisha, priority 2017, dated 2022):

Tested on: caspase 3/7
Test: Caspase-Glo 3/7 Assay in iFECD stimulated with TGF-β2
Format: cell-based, human
Conditions: TGF-β2 10 ng/ml, Dunnett-t test, n=5
Experimental: The medium was removed from a culture dish in which iFECDs were being cultured, and the cells were supplemented with 1×PBS (−) that was preheated to 37° C., and were washed. This was repeated twice. The cells were supplemented again with 1×PBS (−) and incubated for 3 minutes at 37° C. (5% CO2). After removing the PBS (−), the cells were supplemented with 0.05% Trypsin-EDTA (Nacalai Tesque, 32778-34) and incubated for 5 minutes at 37° C. (5% CO2). The cells were then suspended in a medium, and collected by centrifugation at 1500 rpm for 3 minutes. DMEM (Nacalai Tesque, 08456-36)+10% FBS (Biowest, S1820-500)+1% P/S (Nacalai Tesque, 26252-94) was used as the medium.
Corneal endothelial cells from immortalized FECD patients (lot: iFECD3-5) were seeded on a 96-well plate at a ratio of 4×10^3 cells per well and cultured for 24 hours at 37° C. (5% CO2) (medium: DMEM+10% FBS+1% P/S). After 24 hours, the medium was removed. Each mTOR inhibitor was added to culture the cells for 24 hours (medium: DMEM+2% FBS+1% P/S). After 24 hours, the medium was removed. Media containing 10 ng/ml of Recombinant Human TGF-β2 (Wako, 200-19911) and each mTOR inhibitor were added to culture the cells for 24 hours (medium: DMEM+2% FBS+1% P/S). After 24 hours, the cell morphology and apoptosis were observed under a phase difference microscope.
After observation, measurement of caspase 3/7 activity by Caspase-Glo® 3/7 Assay was carried out with the following procedure.
The medium was discarded to achieve 50 μl per well. 50 μl/well of Caspase Glo® 3/7 Assay Reagent (mixture of Caspase-Glo® 3/7 Assay Buffer and Caspase-Glo® 3/7 Assay Substrate) (Promega, G8091) solution was added so as to achieve 1:1 with the medium. The operations hereafter were carried out while being shaded. A shaker was used to mix the content well for two minutes at about 120 minutes^−1 to then be left for 40 minutes at room temperature. After being left, 80 μl was moved to Assay plate (Corning, 3912, Assay plate 96 well, white polystyrene) and […] was measured using GloMax-Multi Detection System (Promega, E7051).
The following mTOR inhibitors were used in this Example. • Rapamycin (Wako, #53123-88-9) • Everolimus (Cayman Chemical, #11597) • Temsirolimus (Tocris Bioscience, #5264) • PI-103 (Cayman Chemical, #10009209) • CC-223 (Cayman Chemical, #19917) • INK128 (Cayman Chemical, #11811) • AZD8055 (Cayman Chemical, #16978) • KU 0063794 (Tocris Bioscience, #3725)

activity of caspase 3/7 compared to control (0.000001 μM)	activity of caspase 3/7 compared to control (0.00001 μM)	activity of caspase 3/7 compared to control (0.0001 μM)	activity of caspase 3/7 compared to control (0.001 μM)	activity of caspase 3/7 compared to control (0.01 μM)	activity of caspase 3/7 compared to control (0.1 μM)	activity of caspase 3/7 compared to control (1 μM)	activity of caspase 3/7 compared to control (10 μM)	SMILES
significant difference was not found	significantly suppressed	significantly suppressed	significantly suppressed	significantly suppressed	significantly suppressed	significantly suppressed	significantly suppressed	CO[C@H]1C[C@@H]2CC[C@@H](C)[C@@](O)(O2)C(=O)C(=O)N2CCCC[C@H]2C(=O)O[C@H]([C@H](C)C[C@@H]2CC[C@@H](OC(=O)C(C)(CO)CO)[C@H](OC)C2)CC(=O)[C@H](C)/C=C(\C)[C@@H](O)[C@@H](OC)C(=O)[C@H](C)C[C@H](C)/C=C/C=C/C=C/1C [temsirolimus, Temsirolimus]
			significantly suppressed	significantly suppressed	significantly suppressed	significantly suppressed		CC(C)n1nc(-c2ccc3oc(N)nc3c2)c2c(N)ncnc21 [INK128]
	significantly suppresses	significantly suppressed	significantly suppressed	significantly suppressed	significantly suppressed			CO[C@H]1C[C@@H]2CC[C@@H](C)[C@@](O)(O2)C(=O)C(=O)N2CCCC[C@H]2C(=O)O[C@H]([C@H](C)C[C@@H]2CC[C@@H](OCCO)[C@H](OC)C2)CC(=O)[C@H](C)/C=C(\C)[C@@H](O)[C@@H](OC)C(=O)[C@H](C)C[C@H](C)/C=C/C=C/C=C/1C [everolimus, Everolimus]
			significantly suppressed	significantly suppressed	significantly suppressed	significantly suppressed		CO[C@H]1CC[C@H](N2C(=O)CNc3ncc(-c4ccc(C(C)(C)O)nc4)nc32)CC1 [CC-223]
				significantly suppressed	significantly suppressed	significantly suppressed		COc1ccc(-c2ccc3c(N4CCOC[C@@H]4C)nc(N4CCOC[C@@H]4C)nc3n2)cc1CO [AZD8055]
			significant difference was not found	significant difference was not found	significantly suppressed	significantly suppressed		COc1ccc(-c2ccc3c(N4CCOCC4)nc(N4C[C@@H](C)O[C@@H](C)C4)nc3n2)cc1CO [KU 0063794]
			significantly suppressed	significantly suppressed	significantly suppressed	significant difference was not found		Oc1cccc(-c2nc(N3CCOCC3)c3oc4ncccc4c3n2)c1 [PI-103]
